{
  "source": "patent US9598393B2",
  "about": "“Structural variants of mycolactones for use in modulating inflammation, immunity and pain” (priority 2011, dated 2017)",
  "key": {"[1]": {"test_system": "epithelial HeLa cell line", "experiment": "Cytopathic activity, MTT assay (effect on global cell metabolic activity)", "format": "cell-based, human", "experimental": "(A) The cytopathic activity of mycolactone and variants was assessed in a [3-(4,5-Dimethylthiazol-2-yl)-2,5-Diphenyltetrazolium Bromide] (MTT) assay, using the epithelial HeLa cell line (ATCC®; CCL-2) as a model. Briefly, HeLa cells were plated in 96-well plates (10^4 cells/well) in Dulbecco's Modified Eagle culture medium supplemented with 10% fetal calf serum and 2 mM L-Glutamine. After 16 h, mycolactone or variants dilutions (final concentration 0.4-8 μM) were added to the wells, and incubated with the cells for 48 h, prior to the addition of MTT at 50 μg/ml. After 4 h, culture supernatants were removed and the formed formazan crystals dissolved in dimethyl sulfoxide (DMSO) for absorbance measurement."}, "[2]": {"test_system": "IL-2 production by Jurkat T cells", "experiment": "Immunosuppressive activity: activation-induced IL-2 production, ELISA", "format": "cell-based, human", "settings": "for Cytokine production (M.A.: mean absorbance) (C) % relative to control: PMA + calcium ionophore, IL-2 ELISA", "experimental": "(C) The immunosuppressive activity of mycolactone and variants was measured on Jurkat T cells (ATCC®; TIB-152™ clone E6-1), as models of human T lymphocytes. Cells were inoculated in 96-well plates (5×10^5 cells/well in RPMI 1640 medium supplemented with 10% fetal calf serum and 2 mM L-Glutamine) then incubated with serial dilutions of the various compounds for 4 h, and stimulated for 20 h with 50 ng/ml phorbol-12-myristate-13-acetate (PMA) and 1 μg/ml calcium ionophore. The production of IL-2 was then assessed in culture supernatants by ELISA."}, "[3]": {"test_system": "CD62-L receptor expression by human peripheral blood cells (PBLs)", "experiment": "T cell homing: expression of CD62-L receptor, flow cytometry", "format": "cell-based", "experimental": "(D) The effect of mycolactone and variants on T cell homing was assessed through their inhibitory effect on the expression of CD62-L receptor by human peripheral blood cells (PBLs). Human PBLs were isolated from total blood by Ficoll density gradient centrifugation. They were incubated in 96-well plates (10^5 cells/well in RPMI 1640 medium supplemented with 10% fetal calf serum and 2 mM L-Glutamine) with mycolactone or variant for 72 h. Cells were then fixed for 20 min in 4% paraformaldehyde (PFA) and stained with an anti-CD62-L antibody coupled with phycoerythrin in a solution of PBS, BSA 0.5%, saponin 0.05%, then analysed by flow cytometry."}, "[4]": {"experiment": "Formalin-induced acute pain model", "format": "in vivo", "settings": "intraperitoneally 60 minutes before formalin, Mycolactone 0.5 mg/kg", "experimental": "The analgesic properties of Mycolactone and variant 22 were tested in the formalin-induced acute pain model (Encyclopedia of Psychopharmacology, Volume 2, p. 111).\nBriefly, Mycolactone and variant 22 were administered intraperitoneally at 0.5 and 5 mg/kg respectively, 60 minutes before the subcutaneous injection of 10 μl of a 5% formalin solution of the right hind-leg. Two negative control groups, injected with PBS (neutral) or ethanol vehicle (vehicle) were tested in the same conditions. A group injected with 3 mg/kg morphin 15 minutes before formalin injection was used as a positive reference.\nThe time spent in licking/biting and the number of jumps during the early phase (0-5 min) and the late phase (10-40 min) were recorded, as indicators of acute and inflammatory pain, respectively. The graphs in FIG. 5 compare the global score of pain (rank sum of licking/biting time and jump number) in the five groups of animals (Mann-Whitney test on trimmed means; n≧6; *P<0.05 **P<0.01 vs. neutral; # P<0.05, # P<0.01 vs. vehicle."}, "macrophages": {"test_system": "macrophages", "settings": "Coutanceau et al., 2005; cited from earlier work"}, "dendritic cells": {"test_system": "dendritic cells", "settings": "Coutanceau et al., 2007; cited from earlier work"}, "T cell trafficking": {"test_system": "T cell trafficking", "settings": "Guenin-Macé et al., 2011; cited from earlier work"}},
  "data": [
    {"substance": "Mycolactone [reference compound]", "values": [
      {"measurement": "Metabolic activity (MA: mean absorbance) (A) % relative to control", "setting": "[1]; 0.4 μM, HeLa cells, 48 h, MTT", "value": 70, "unit": "%"},
      {"measurement": "Metabolic activity (MA: mean absorbance) (A) % relative to control", "setting": "[1]; 4 μM, HeLa cells, 48 h, MTT", "value": 80, "unit": "%"},
      {"measurement": "Metabolic activity (MA: mean absorbance) (A) % relative to control", "setting": "[1]; 8 μM, HeLa cells, 48 h, MTT", "value": 100, "unit": "%"},
      {"measurement": "IC50", "setting": "[1]; HeLa cells, 48 h, MTT, % inhibition relative to control, read-out: Metabolic activity (A): IC50 value (concentration at which the compound induces 50% of mycolactone maximal activity)", "value": 3500, "unit": "nM"},
      {"measurement": "cell viability", "setting": "[1]; at concentrations >0.4 μM", "value": "markedly reduced cell viability"},
      {"measurement": "Metabolic activity (A): corresponding % of mycolactone activity (in brackets)", "setting": "[1]; relative to mycolactone (100%)", "value": 100, "unit": "%"},
      {"measurement": "Cytokine production (M.A.: mean absorbance) (C) % relative to control", "setting": "[2]; 0.4 μM, Jurkat T cells", "value": 99, "unit": "%"},
      {"measurement": "Cytokine production (M.A.: mean absorbance) (C) % relative to control", "setting": "[2]; 4 μM, Jurkat T cells", "value": 100, "unit": "%"},
      {"measurement": "Cytokine production (M.A.: mean absorbance) (C) % relative to control", "setting": "[2]; 8 μM, Jurkat T cells", "value": 100, "unit": "%"},
      {"measurement": "IC50", "setting": "[2]; Jurkat T cells, IL-2, % inhibition relative to control, read-out: Cytokine production (C): IC50 value (concentration at which the compound induces 50% of mycolactone maximal activity)", "value": 100, "unit": "nM"},
      {"measurement": "activation-induced production of IL-2 by human lymphocytes", "setting": "[2]; at concentrations >0.4 μM", "value": "complete blockade"},
      {"measurement": "Cytokine production (C): corresponding % of mycolactone activity (in brackets)", "setting": "[2]; relative to mycolactone (100%)", "value": 100, "unit": "%"},
      {"measurement": "CD62-L expression (MFI: mean fluorescence intensity) (D) % relative to control", "setting": "[3]; 0.4 μM, human PBLs, 72 h", "value": 100, "unit": "%"},
      {"measurement": "CD62-L expression (MFI: mean fluorescence intensity) (D) % relative to control", "setting": "[3]; 4 μM, human PBLs, 72 h", "value": 100, "unit": "%"},
      {"measurement": "CD62-L expression (MFI: mean fluorescence intensity) (D) % relative to control", "setting": "[3]; 8 μM, human PBLs, 72 h", "value": 100, "unit": "%"},
      {"measurement": "expression of CD62-L", "setting": "[3]; at concentrations >0.4 μM", "value": "totally suppressed"},
      {"measurement": "IC50", "setting": "[3]; human PBLs, 72 h, % inhibition relative to control, read-out: CD62-L expression (D): IC50 value (concentration at which the compound induces 50% of mycolactone maximal activity)", "value": "< 30", "unit": "nM"},
      {"measurement": "CD62-L expression (D): corresponding % of mycolactone activity (in brackets)", "setting": "[3]; relative to mycolactone (100%)", "value": 100, "unit": "%"},
      {"measurement": "activity against acute pain (global score of pain, early phase 0-5 min)", "setting": "[4]", "value": "significant activity"},
      {"measurement": "activity against inflammatory pain (global score of pain, late phase 10-40 min)", "setting": "[4]; variant 22 5 mg/kg", "value": "significant activity"},
      {"measurement": "release of inflammatory TNF by macrophages", "setting": "macrophages", "value": "blocks the release of inflammatory TNF"},
      {"measurement": "production of chemotactic signals by dendritic cells", "setting": "dendritic cells", "value": "inhibits the production of chemotactic signals"},
      {"measurement": "T cell trafficking in vivo", "setting": "T cell trafficking", "value": "severely impairs T cell trafficking"}
    ]}
  ]
}
